# Data published in PMC10257182, “Discovery of senolytics using machine learning” (Nature Communications, 2023).
# Like-named read-outs stand apart in the source and are kept apart here.
# How the values were obtained:
# Type in all cases: cell-based, human
# [1] = test system: non-senescent control A549 cells; test: Nuclei count senolytic assay, TIS model, non-senescent control cells; conditions: Homo sapiens, A549, Control cells, mean, read-out: Mean % Cell Survival; for viability at 10 µM: log (dose) [M] -5; for viability at 4.68 µM: log (dose) [M] -5.33; for viability at 2.19 µM: log (dose) [M] -5.66; for viability at 1 µM: log (dose) [M] -6; for viability at 0.468 µM: log (dose) [M] -6.33; for viability at 0.219 µM: log (dose) [M] -6.66; for viability at 0.1 µM: log (dose) [M] -7; for viability at 0.0468 µM: log (dose) [M] -7.33; for viability at 0.0219 µM: log (dose) [M] -7.66; for viability at 0.01 µM: log (dose) [M] -8
# Procedure, shortened: (§1)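 Read-out is the imaged count of Hoechst 33342-stained nuclei (2 μg/ml final) in fixed, permeabilised A549 cells. Senescent cells had received etoposide at 100 μM for 48 h plus three days recovery in normal media. Compound exposure lasted 72 h across a 10-point […] range, 10 μM to 10 nM.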
# [2] = test system: non-senescent control IMR90 ER:RAS cells; test: Nuclei count (Hoechst, high content imaging) senolytic assay, OIS model, non-senescent control cells; conditions: Homo sapiens; for viability at 2.188 µM: log (dose) [M] -5.66, 72 h; for viability at 2.19 µM: log (dose) [M] -5.66
# Procedure, shortened: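 Readout is automated image-based counting of Hoechst-stained nuclei per well, with loss of cells relative to untreated wells taken as cell death. Senescent (4-OHT, 100 nM) and control IMR90 ER:RAS cells were exposed to compounds for 72 h at 10 nM to 10 μM final.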
# [3] = test system: senescent A549 cells (etoposide-induced); test: Nuclei count senolytic assay, therapy-induced senescence (TIS) model, senescent cells; conditions: Homo sapiens, A549, Senescent cells, mean, read-out: Mean % Cell Survival; for viability at 10 µM: log (dose) [M] -5; for viability at 4.68 µM: log (dose) [M] -5.33; for viability at 2.19 µM: log (dose) [M] -5.66; for viability at 1 µM: log (dose) [M] -6; for viability at 0.468 µM: log (dose) [M] -6.33; for viability at 0.219 µM: log (dose) [M] -6.66; for viability at 0.1 µM: log (dose) [M] -7; for viability at 0.0468 µM: log (dose) [M] -7.33; for viability at 0.0219 µM: log (dose) [M] -7.66; for viability at 0.01 µM: log (dose) [M] -8
# Procedure, shortened: as §1
# [4] = IMR-90, 72 h, Control, log (dose) [M] -5, 72 h, mean n=3 (Fig 3C), read-out: Mean % Cell Survival
# [5] = IMR-90, 72 h, Control, log (dose) [M] -5.33, 72 h, mean n=3 (Fig 3C), read-out: Mean % Cell Survival
# [6] = IMR-90, 72 h, Control, mean n=3 (Fig 3C), read-out: Mean % Cell Survival
# [7] = IMR-90, 72 h, Control, log (dose) [M] -6, 72 h, mean n=3 (Fig 3C), read-out: Mean % Cell Survival
# [8] = IMR-90, 72 h, Control, log (dose) [M] -6.33, 72 h, mean n=3 (Fig 3C), read-out: Mean % Cell Survival
# [9] = IMR-90, 72 h, Control, log (dose) [M] -6.66, 72 h, mean n=3 (Fig 3C), read-out: Mean % Cell Survival
# [10] = IMR-90, 72 h, Control, log (dose) [M] -7, 72 h, mean n=3 (Fig 3C), read-out: Mean % Cell Survival
# [11] = IMR-90, 72 h, Control, log (dose) [M] -7.33, 72 h, mean n=3 (Fig 3C), read-out: Mean % Cell Survival
# [12] = IMR-90, 72 h, Control, log (dose) [M] -7.66, 72 h, mean n=3 (Fig 3C), read-out: Mean % Cell Survival
# [13] = IMR-90, 72 h, Control, log (dose) [M] -8, 72 h, mean n=3 (Fig 3C), read-out: Mean % Cell Survival
# [14] = IMR-90, Control cells, log (dose) [M] -5, individual replicates, SUP FIG 4C, read-out: % Cell Survival
# [15] = IMR-90, Control cells, log (dose) [M] -6.66, individual replicates, SUP FIG 4C, read-out: % Cell Survival
# [16] = IMR-90, Control cells, log (dose) [M] -7, individual replicates, SUP FIG 4C, read-out: % Cell Survival
# [17] = IMR-90, Control cells, log (dose) [M] -7.33, individual replicates, SUP FIG 4C, read-out: % Cell Survival
# [18] = IMR-90, Control cells, log (dose) [M] -7.66, individual replicates, SUP FIG 4C, read-out: % Cell Survival
# [19] = IMR-90, Control cells, log (dose) [M] -8, individual replicates, SUP FIG 4C, read-out: % Cell Survival
# [20] = IMR-90, Control, read-out: % Cell Survival
# [21] = IMR-90, Control, log (dose) [M] -5.33, read-out: % Cell Survival
# [22] = IMR-90, Control, log (dose) [M] -6.66, read-out: % Cell Survival
# [23] = IMR-90, Control, log (dose) [M] -7, read-out: % Cell Survival
# [24] = IMR-90, Control, log (dose) [M] -7.33, read-out: % Cell Survival
# [25] = IMR-90, Control, log (dose) [M] -7.66, read-out: % Cell Survival
# [26] = IMR-90, Control, log (dose) [M] -8, read-out: % Cell Survival
smiles,measurement,setting,value
"CO[C@H]1C[C@@H]2CC[C@@H](C)[C@@](O)(O2)C(=O)C(=O)N2CCCC[C@H]2C(=O)O[C@H]([C@H](C)C[C@@H]2CC[C@@H](O)[C@H](OC)C2)CC(=O)[C@H](C)/C=C(\C)[C@@H](O)[C@@H](OC)C(=O)[C@H](C)C[C@H](C)/C=C/C=C/C=C/1C [Rapamycin, rapamycin, reference compound]",viability at 10 µM,[1],74.6%
same,viability at 4.68 µM,[1],60.2%
same,viability at 2.19 µM,[1],54%
same,viability at 1 µM,[1],104%
same,viability at 0.468 µM,[1],117%
same,viability at 0.219 µM,[1],122%
same,viability at 0.1 µM,[1],128%
same,viability at 0.0468 µM,[1],102%
same,viability at 0.0219 µM,[1],117%
same,viability at 0.01 µM,[1],116%
same,viability at 10 µM,[2]; [4],98.8%
same,viability at 4.677 µM,[2]; [5],100%
same,viability at 2.188 µM,[2]; [6],89.2%
same,viability at 1 µM,[2]; [7],83.1%
same,viability at 0.4677 µM,[2]; [8],85.7%
same,viability at 0.2188 µM,[2]; [9],86.6%
same,viability at 0.1 µM,[2]; [10],92.6%
same,viability at 0.04677 µM,[2]; [11],86.3%
same,viability at 0.02188 µM,[2]; [12],95.8%
same,viability at 0.01 µM,[2]; [13],100%
same,viability at 10 µM,[2]; [14],91.9%
same,viability at 0.4677 µM,"[2]; IMR-90, Control cells, log (dose) [M] -6.33, individual replicates, SUP FIG 4C, read-out: % Cell Survival",77.2%
same,viability at 0.2188 µM,[2]; [15],83%
same,viability at 0.1 µM,[2]; [16],91%
same,viability at 0.04677 µM,[2]; [17],89.7%
same,viability at 0.02188 µM,[2]; [18],93%
same,viability at 0.01 µM,[2]; [19],109%
same,viability at 2.19 µM,[2]; [20],80.5%
same,viability at 10 µM,[3],212%
same,viability at 4.68 µM,[3],215%
same,viability at 2.19 µM,[3],208%
same,viability at 1 µM,[3],228%
same,viability at 0.468 µM,[3],246%
same,viability at 0.219 µM,[3],228%
same,viability at 0.1 µM,[3],250%
same,viability at 0.0468 µM,[3],249%
same,viability at 0.0219 µM,[3],69.5%
same,viability at 0.01 µM,[3],93.7%
"CO[C@H]1C[C@@H]2CC[C@@H](C)[C@@](O)(O2)C(=O)C(=O)N2CCCC[C@H]2C(=O)O[C@H]([C@H](C)C[C@@H]2CC[C@H](n3cnnn3)[C@H](OC)C2)CC(=O)[C@H](C)/C=C(\C)[C@@H](O)[C@@H](OC)C(=O)[C@H](C)C[C@H](C)/C=C/C=C/C=C/1C [Zotarolimus, zotarolimus, reference compound]",viability at 10 µM,[1],84.8%
same,viability at 4.68 µM,[1],92.5%
same,viability at 2.19 µM,[1],84.4%
same,viability at 1 µM,[1],76.7%
same,viability at 0.468 µM,[1],92.9%
same,viability at 0.219 µM,[1],91%
same,viability at 0.1 µM,[1],95.4%
same,viability at 0.0468 µM,[1],98.8%
same,viability at 0.0219 µM,[1],96.8%
same,viability at 0.01 µM,[1],109%
same,viability at 10 µM,[2]; [4],94.7%
same,viability at 4.677 µM,[2]; [5],101%
same,viability at 2.188 µM,[2]; [6],84.8%
same,viability at 1 µM,[2]; [7],104%
same,viability at 0.4677 µM,[2]; [8],108%
same,viability at 0.2188 µM,[2]; [9],99.6%
same,viability at 0.1 µM,[2]; [10],95.5%
same,viability at 0.04677 µM,[2]; [11],105%
same,viability at 0.02188 µM,[2]; [12],110%
same,viability at 0.01 µM,[2]; [13],98.2%
same,viability at 4.677 µM,"[2]; IMR-90, Control cells, log (dose) [M] -5.33, individual replicates, SUP FIG 4C, read-out: % Cell Survival",107%
same,viability at 1 µM,"[2]; IMR-90, Control cells, log (dose) [M] -6, individual replicates, SUP FIG 4C, read-out: % Cell Survival",109%
same,viability at 0.2188 µM,[2]; [15],99.3%
same,viability at 0.1 µM,[2]; [16],91%
same,viability at 0.04677 µM,[2]; [17],102%
same,viability at 0.02188 µM,[2]; [18],111%
same,viability at 0.01 µM,[2]; [19],93.6%
same,viability at 4.68 µM,[2]; [21],92.8%
same,viability at 2.19 µM,[2]; [20],83.4%
same,viability at 0.468 µM,"[2]; IMR-90, Control, log (dose) [M] -6.33, read-out: % Cell Survival",93.7%
same,viability at 0.219 µM,[2]; [22],88.1%
same,viability at 0.1 µM,[2]; [23],98.7%
same,viability at 0.04677 µM,[2]; [24],99.6%
same,viability at 0.0219 µM,[2]; [25],85.6%
same,viability at 0.01 µM,[2]; [26],99.5%
same,viability at 10 µM,[3],138%
same,viability at 4.68 µM,[3],160%
same,viability at 2.19 µM,[3],123%
same,viability at 1 µM,[3],143%
same,viability at 0.468 µM,[3],130%
same,viability at 0.219 µM,[3],174%
same,viability at 0.1 µM,[3],155%
same,viability at 0.0468 µM,[3],136%
same,viability at 0.0219 µM,[3],127%
same,viability at 0.01 µM,[3],84.3%
"COC[C@H]1C[C@@H](c2nc(-c3ccc4c(c3)COc3cc5c(ccc6nc([C@@H]7CC[C@H](C)N7C(=O)[C@@H](NC(=O)OC)C(C)C)[nH]c65)cc3-4)c[nH]2)N(C(=O)[C@H](NC(=O)OC)c2ccccc2)C1 [Velpatasvir, velpatasvir, reference compound]",viability at 10 µM,[1],80.9%
same,viability at 4.68 µM,[1],84.4%
same,viability at 2.19 µM,[1],80.3%
same,viability at 1 µM,[1],52.9%
same,viability at 0.468 µM,[1],93.4%
same,viability at 0.219 µM,[1],28.7%
same,viability at 0.1 µM,[1],88.2%
same,viability at 0.0468 µM,[1],89.2%
same,viability at 0.0219 µM,[1],92.1%
same,viability at 0.01 µM,[1],96.1%
same,viability at 10 µM,[2]; [4],119%
same,viability at 4.677 µM,[2]; [5],116%
same,viability at 2.188 µM,[2]; [6],113%
same,viability at 1 µM,[2]; [7],115%
same,viability at 0.4677 µM,[2]; [8],86.1%
same,viability at 0.2188 µM,[2]; [9],99.9%
same,viability at 0.1 µM,[2]; [10],98.3%
same,viability at 0.04677 µM,[2]; [11],106%
same,viability at 0.02188 µM,[2]; [12],110%
same,viability at 0.01 µM,[2]; [13],96.2%
same,viability at 10 µM,[2]; [14],113%
same,viability at 0.2188 µM,[2]; [15],91.6%
same,viability at 0.04677 µM,[2]; [17],101%
same,viability at 10 µM,"[2]; IMR-90, Control, log (dose) [M] -5, read-out: % Cell Survival",82.9%
same,viability at 4.68 µM,[2]; [21],85.2%
same,viability at 2.19 µM,[2]; [20],80.3%
same,viability at 1 µM,"[2]; IMR-90, Control, log (dose) [M] -6, read-out: % Cell Survival",80.7%
same,viability at 0.219 µM,[2]; [22],86%
same,viability at 0.1 µM,[2]; [23],91.2%
same,viability at 0.04677 µM,[2]; [24],89.7%
same,viability at 0.0219 µM,[2]; [25],95.3%
same,viability at 0.01 µM,[2]; [26],97.1%
same,viability at 10 µM,[3],114%
same,viability at 4.68 µM,[3],105%
same,viability at 2.19 µM,[3],120%
same,viability at 1 µM,[3],122%
same,viability at 0.468 µM,[3],122%
same,viability at 0.219 µM,[3],113%
same,viability at 0.1 µM,[3],112%
same,viability at 0.0468 µM,[3],115%
same,viability at 0.0219 µM,[3],91.3%
same,viability at 0.01 µM,[3],104%
